Data on 25 compounds can be found in patent publication US20200121677A1, “SUBSTITUTED 6,7-DIHYDROPYRAZOLO[1,5-a]PYRAZINES AS NEGATIVE ALLOSTERIC MODULATORS OF MGLUR2 RECEPTORS” (Janssen Pharmaceutica NV, priority 2014, published 2020).

Some results are limits rather than exact numbers.

One data set has as its system Male Wiga Wistar rats. The data set is described as follows: Reversal of LY-404039-induced decrease of palpebral opening in apomorphine-challenged rats. Type of data set: in vivo, rat. The conditions noted are these: for ED50: Rattus norvegicus, rats, route PO (route cell empty for Co. 88 and 84), read-out: ED50 APO LY-404039 (Reversal of LY-404039-induced decrease of palpebral opening in apomorphine challenged rats). The protocol: 1) Reversal of LY-404039-Induced Decrease of Palpebral Opening in Apomorphine-Challenged Rats.
Male Wiga Wistar rats (Crl:WI; Charles River Germany; 220±40 g) were housed under standard laboratory conditions (21±2° C.; 50-65% relative humidity; light-dark cycle set at 12 h; lights on at 6.00 h) and fasted overnight prior to the start of the experiments (tap water remained available ad libitum). During the test period, they were housed in individual cages. Palpebral opening was scored every 5 min over the first hour after injection of apomorphine (1.0 mg/kg, i.v.) in animals either pretreated or not pretreated with LY-404039 (2.5 mg/kg, s.c.) at 1 h prior to the apomorphine injection. The animals were also pretreated with test compound or solvent at a predefined interval before apomorphine challenge. The score system was: (5) exophthalmos, (4) wide open, (3) open for three-quarters, (2) half open, (1) open for one-quarter, (0) closed. The scores for palpebral opening were cumulated over the 60-min observation period.

The test system of another data set is rats. The data set is described as follows: Reversal of the effect of the mGluR2 PAM JNJ-42153605-induced inhibition of scopolamine-induced hyperlocomotion. Type of data set: in vivo, rat. To be noted: Rattus norvegicus; rats, route PO, criterion total distance >1500 cm; read-out: ED50 SCOP JNJ-42153605 (Reversal of the effect of JNJ 42153605 on scopolamine-induced hyperlocomotion). As to the method:
2) Reversal of the Effect of the mGluR2 PAM JNJ-42153605-Induced Inhibition of Scopolamine-Induced Hyperlocomotion
Motor activity was measured in microprocessor-based motor activity arenas (closed gray PVC cylinders with a height of 39 cm and a diameter of 31 cm). Each arena was placed on an infrared LED (8×8 LEDs) lit box (white PVC squared box; 40×40 cm^2; height 12.5 cm. An infrared-sensitive tube camera and a white light source were mounted to the ceiling above the observation chamber to track the animal. The total distance traveled (cm) was recorded and analyzed using the Noldus Ethovision XT Video Tracking System (Version 7.0.418; Noldus, Wageningen, The Netherlands). The intensity of the light within the activity cages (measured in the centre at the level of the floor) ranged between 4 and 8 LUX.
The rats were pretreated with test compound or vehicle at 60 min before the start of the activity recordings and placed into individual cages. The rats were challenged with JNJ-42153605 (3-(cyclopropylmethyl)-7-(4-phenylpiperidin-1-yl)-8-(trifluoromethyl)[1,2,4]triazolo[4,3-a]pyridine; WO2010/130424; Cid et al. J. Med. Chem. 2012, 55, 8770-8789) (20 mg/kg, i.v.) 30 min before the start of the activity recording combined with scopolamine (0.16 mg/kg, i.v.) just before the start of the activity measurements. Immediately after the injection of scopolamine, the rats were placed into the activity monitors and total distance traveled over the first 30 min was measured.
For reversal of the inhibitory effect of JNJ-42153605 on the scopolamine-induced hyperlocomotion, the following all-or-none criteria were adopted: (1) reversal: total distance >1500 cm.

In a further data set the target is human mGlu2 receptor (Homo sapiens, UniProt Q14416). The data set is described as follows: [35S]GTPγS binding assay, mGluR2 negative allosteric modulation (membranes from CHO cells transfected with human mGlu2 receptor, glutamate ~EC80 60 μM).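 As to all read-outs here: membranes preincubated 30 min at 30 °C with compound plus glutamate, then [35S]GTPγS (0.1 nM) incorporation measured over another 30 min at 30 °C.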 To be noted: for IC50: GTPγS - hmGluR2 anGT pIC50, membranes with human mGlu2 receptor, glutamate ~EC80 (60 μM), pIC50 = -log IC50 (M); for Emax: read-out: GTPγS - hmGluR2 anGT Emax, relative maximal effect: maximal % inhibition relative to the control glutamate response.
Chain of human mGlu2 receptor (Q14416 19-872): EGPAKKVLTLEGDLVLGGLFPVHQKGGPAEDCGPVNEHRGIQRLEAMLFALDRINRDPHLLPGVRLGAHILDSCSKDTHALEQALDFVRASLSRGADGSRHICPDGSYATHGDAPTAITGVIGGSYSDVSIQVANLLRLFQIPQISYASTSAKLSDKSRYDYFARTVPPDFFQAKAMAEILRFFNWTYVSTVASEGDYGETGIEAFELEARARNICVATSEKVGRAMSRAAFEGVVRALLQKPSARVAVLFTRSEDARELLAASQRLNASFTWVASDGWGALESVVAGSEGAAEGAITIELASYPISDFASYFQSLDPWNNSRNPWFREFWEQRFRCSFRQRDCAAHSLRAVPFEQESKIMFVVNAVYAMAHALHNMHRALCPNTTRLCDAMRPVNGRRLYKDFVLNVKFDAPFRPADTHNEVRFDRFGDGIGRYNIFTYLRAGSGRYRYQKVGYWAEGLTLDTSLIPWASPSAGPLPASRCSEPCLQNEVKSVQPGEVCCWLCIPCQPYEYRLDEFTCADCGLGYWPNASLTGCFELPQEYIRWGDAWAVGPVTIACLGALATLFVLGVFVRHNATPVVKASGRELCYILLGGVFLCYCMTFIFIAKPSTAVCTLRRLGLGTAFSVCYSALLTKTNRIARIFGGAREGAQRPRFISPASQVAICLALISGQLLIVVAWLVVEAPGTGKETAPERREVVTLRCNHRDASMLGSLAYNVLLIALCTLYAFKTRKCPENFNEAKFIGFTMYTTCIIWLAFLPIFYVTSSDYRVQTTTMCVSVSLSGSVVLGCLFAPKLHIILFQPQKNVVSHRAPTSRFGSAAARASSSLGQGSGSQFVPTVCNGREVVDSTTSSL

As for `C[C@H]1CN(c2ccc(C(F)(F)F)c(Cl)c2)C(=O)c2c(C(=O)Nc3ccccn3)cnn21` [compound 46], the melting point (in general, the temperature, or range, at which the solid turns liquid) stood at 223 °C. Moreover, the ED50 (as a rule, the midpoint of the dose-response relation) in the data set with Male Wiga Wistar rats was determined as 1.99 mg/kg. Besides, in the data set with rats, the ED50 was over 2.5 mg/kg. Moreover, at human mGlu2 receptor, the concentration for half-maximal inhibition (IC50) (as a rule, the midpoint of a concentration-inhibition curve) is 2.75e-09 M and the Emax (commonly the greatest response seen or fitted, relative to the assay's reference) worked out at 113%.

In turn, `C[C@H]1CN(c2ccc(C(F)(F)F)cc2)C(=O)c2c(C(=O)Nc3cncc(F)c3)cnn21` [compound 13] gave a melting point of 196.7 °C. The ED50 with Male Wiga Wistar rats worked out at 0.32 mg/kg. The ED50 in the data set with rats amounted to 0.32 mg/kg. Besides, at human mGlu2 receptor, the half-maximal inhibitory concentration (IC50) was 2.24e-09 M and the maximal effect (Emax) was 110%.

`C[C@H]1CN(c2ccc(C(F)(F)F)cc2)C(=O)c2c(C(=O)Nc3cnccn3)cnn21` [compound 100] registered a melting point of 225 °C. In the data set on Male Wiga Wistar rats, the 50% effective dose (ED50) was determined as 0.32 mg/kg. Besides, the 50% effective dose (ED50) with rats stood at 0.2 mg/kg. In addition, on human mGlu2 receptor, the IC50 is 2.95e-09 M and the Emax turned out to be 119%.

Turning to `C[C@H]1CN(c2ccc(Cl)cc2)C(=O)c2c(C(=O)Nc3cccnc3)cnn21` [compound 41], the melting point worked out at 180 °C. Besides, the ED50 in the data set with Male Wiga Wistar rats came out at 0.32 mg/kg. The ED50 in the data set with rats is over 0.63 mg/kg. Further, on human mGlu2 receptor, the IC50 was 6.17e-09 M and the Emax worked out at 106%.

In the case of `N[C@@]1(C(=O)O)CS(=O)(=O)[C@H]2[C@H](C(=O)O)[C@H]21` [LY-404039, reference compound], the “Palpebral opening score, Occurrence score > 26 (%)” value in the data set with Male Wiga Wistar rats (control animals, scores cumulated over 60 min after apomorphine 1.0 mg/kg i.v., LY-404039 2.5 mg/kg s.c. 1 h before apomorphine) amounted to 3.2%.

`Cc1cncc(NC(=O)c2cnn3c2C(=O)N(c2ccc(C(F)(F)F)c(Cl)c2)C[C@@H]3C)c1C` [compound 126] gave a melting point of 229.17 °C. Besides, in the data set with Male Wiga Wistar rats, the 50% effective dose (ED50) is over 0.63 mg/kg. The median effective dose (ED50) in the data set with rats was over 0.63 mg/kg. On human mGlu2 receptor, the IC50 was 1.17e-09 M and the Emax is 108%.

Compound `COc1cncc(NC(=O)c2cnn3c2C(=O)N(c2ccc(C(F)(F)F)cc2)C[C@@H]3C)c1` [compound 144] gave a melting point of 197.8 °C. Also, the 50% effective dose (ED50) in the data set with Male Wiga Wistar rats worked out at 1.99 mg/kg. In addition, the ED50 in the data set on rats worked out at 1.01 mg/kg. In addition, at human mGlu2 receptor, the concentration for half-maximal inhibition (IC50) is 4.79e-09 M and the maximum response (Emax) turned out to be 114%.

`COc1cncc(NC(=O)c2cnn3c2C(=O)N(c2ccc(C(F)(F)F)c(C)c2)C[C@@H]3C)c1` [compound 40] gave a melting point of 194.8 °C. Moreover, in the data set with Male Wiga Wistar rats, the median effective dose (ED50) was over 0.63 mg/kg. Moreover, the ED50 in the data set with rats is over 0.63 mg/kg. Further, at human mGlu2 receptor, the IC50 is 2.14e-09 M and the maximal response (Emax) was found to be 111%.

In turn, `C[C@H]1CN(c2ccc(C(F)(F)F)c(Cl)c2)C(=O)c2c(C(=O)Nc3ccc(F)cn3)cnn21` [compound 108] registered a melting point of 212.88 °C. For the same compound, in the data set with rats, the median effective dose (ED50) was over 0.63 mg/kg. Moreover, on human mGlu2 receptor, the half-maximal inhibitory concentration (IC50) was 2.82e-09 M and the Emax was 104%.

As for `C[C@H]1CN(c2ccc(C(F)(F)F)cc2)C(=O)c2c(C(=O)Nc3nccs3)cnn21` [compound 140], the melting point was determined as 246.7 °C. Also, the median effective dose (ED50) in the data set with rats was over 2.5 mg/kg. Moreover, at human mGlu2 receptor, the IC50 was 9.33e-09 M and the maximum response (Emax) amounted to 111%.

`C[C@H]1CN(c2ccc(C(F)(F)F)cc2)C(=O)c2c(C(=O)Nc3cnccc3CO)cnn21` [compound 147]: the melting point worked out at 212.57 °C. Further, the ED50 with rats was over 0.63 mg/kg. At human mGlu2 receptor, the half-maximal inhibitory concentration (IC50) is 5.37e-08 M and the maximal response (Emax) amounted to 103%.

Consider `COc1cc(N2C[C@H](C)n3ncc(C(=O)Nc4cncc(C)c4)c3C2=O)ccc1C(F)(F)F` [compound 33], for which the melting point amounted to 216.6 °C. Further, the ED50 in the data set with rats is over 0.63 mg/kg. Besides, at human mGlu2 receptor, the IC50 was 3.72e-09 M and the Emax turned out to be 111%.

With `C[C@H]1CN(c2ccc(C(F)(F)F)cc2)C(=O)c2c(C(=O)Nc3ccncc3F)cnn21` [compound 4], the melting point worked out at 189 °C. Besides, in the data set with rats, the ED50 was 1.01 mg/kg. Also, on human mGlu2 receptor, the IC50 is 3.02e-09 M and the maximal effect (Emax) stood at 117%.

In turn, `C[C@H]1CN(c2ccc(C(F)(F)F)cc2)C(=O)c2c(C(=O)Nc3ccncn3)cnn21` [compound 141] came in with a melting point of 224.9 °C. In the data set with rats, the ED50 was over 2.5 mg/kg. Moreover, at human mGlu2 receptor, the IC50 is 8.32e-09 M and the maximal response (Emax) worked out at 113%.

On to `COc1cncc(NC(=O)c2cnn3c2C(=O)N(c2ccc(C(F)(F)F)c(Cl)c2)C[C@@H]3C)c1C` [compound 127], for which the melting point was 185.94 °C. Besides, in the data set on rats, the ED50 is over 0.63 mg/kg. In addition, on human mGlu2 receptor, the half-inhibitory concentration (IC50) was 4.07e-09 M and the Emax worked out at 108%.

For `Cc1cc(NC(=O)c2cnn3c2C(=O)N(c2ccc(C(F)(F)F)c(Cl)c2)C[C@@H]3C)cc(C)n1` [compound 107], the ED50 with Male Wiga Wistar rats is over 0.63 mg/kg. In addition, the 50% effective dose (ED50) in the data set with rats was over 0.63 mg/kg. In addition, on human mGlu2 receptor, the concentration for half-maximal inhibition (IC50) was 1.48e-09 M and the maximal response (Emax) amounted to 107%.

Take `C[C@H]1CN(c2ccc(C(F)(F)F)cc2)C(=O)c2c(C(=O)Nc3ccc(F)cc3)cnn21` [compound 7]: the melting point was 185.3 °C. In addition, the ED50 in the data set with rats is over 2.5 mg/kg. In addition, at human mGlu2 receptor, the IC50 is 4.68e-09 M and the maximal response (Emax) came out at 103%.

Compound `C[C@H]1CN(c2ccc(C(F)(F)F)cc2)C(=O)c2c(C(=O)Nc3ccc(F)cn3)cnn21` [compound 104] showed a melting point of 184.48 °C. In addition, the ED50 with rats was over 0.63 mg/kg. Besides, at human mGlu2 receptor, the half-maximal inhibitory concentration (IC50) amounted to 8.13e-09 M and the maximal effect (Emax) was 108%.

With `Cc1cc(NC(=O)c2cnn3c2C(=O)N(c2ccc(Cl)cc2)C[C@@H]3C)ccn1` [compound 89], the melting point worked out at 171.4 °C. Also, the ED50 in the data set with rats was over 2.5 mg/kg. In addition, on human mGlu2 receptor, the IC50 was 1.05e-08 M and the Emax amounted to 107%.

Consider `C[C@H]1CN(c2ccc(Cl)c(Cl)c2)C(=O)c2c(C(=O)Nc3ccc(F)cn3)cnn21` [compound 98, (7S)-5-(3,4-Dichlorophenyl)-N-(5-fluoro-2-pyridyl)-7-methyl-4-oxo-6,7-dihydropyrazolo[1,5-a]pyrazine-3-carboxamide], for which the melting point is 179.56 °C. The median effective dose (ED50) with rats is over 0.63 mg/kg. Further, on human mGlu2 receptor, the 50% inhibitory concentration (IC50) is 3.63e-09 M and the Emax was 107%.

In the case of `Cc1cc(NC(=O)c2cnn3c2C(=O)N(c2ccc(Cl)c(C)c2)C[C@@H]3C)cc(C)n1` [compound 160], the melting point came to 178.1 °C. For the same compound, the ED50 in the data set with rats was over 0.63 mg/kg. At human mGlu2 receptor, the concentration for half-maximal inhibition (IC50) is 3.55e-09 M and the maximal response (Emax) came to 112%.

As to `C[C@H]1CN(c2ccc(C(F)(F)F)c(F)c2)C(=O)c2c(C(=O)Nc3ccc(F)cn3)cnn21` [compound 78], the melting point was 183.36 °C. Also, the 50% effective dose (ED50) in the data set on rats was over 0.63 mg/kg. Also, at human mGlu2 receptor, the IC50 was 1.35e-08 M and the Emax amounted to 106%.

As for `COc1cc(N2C[C@H](C)n3ncc(C(=O)Nc4cnccc4C)c3C2=O)ccc1C(F)(F)F` [compound 32], the melting point stood at 243.4 °C. Also, the 50% effective dose (ED50) with rats is over 0.63 mg/kg. In addition, at human mGlu2 receptor, the IC50 is 3.47e-09 M and the Emax amounted to 111%.

In the case of `Cc1cc(NC(=O)c2cnn3c2C(=O)N(c2ccc(C(F)(F)F)cn2)C[C@@H]3C)ccn1` [compound 88], the melting point was determined as 244.9 °C. The 50% effective dose (ED50) with Male Wiga Wistar rats was over 2.5 mg/kg. At human mGlu2 receptor, the IC50 was 8.51e-09 M and the Emax was 106%.

In the case of `Cc1cc(NC(=O)c2cnn3c2C(=O)N(c2ccc(Cl)c(OC(F)F)c2)C[C@@H]3C)ccn1` [compound 84, (7S)-5-[4-chloro-3-(difluoromethoxy)phenyl]-7-methyl-N-(2-methyl-4-pyridyl)-4-oxo-6,7-dihydropyrazolo[1,5-a]pyrazine-3-carboxamide], the melting point was 196.7 °C. Besides, in the data set on Male Wiga Wistar rats, the ED50 is over 2.5 mg/kg. Also, at human mGlu2 receptor, the concentration for half-maximal inhibition (IC50) was 7.41e-09 M and the Emax was 112%.
